Converted amounts (≈) assume the structure as drawn. Values belong to the compound of their own block, whether it stands above or below them. The source made the active and inactive calls. No cut-off for these calls is given here.
Experiments:
[1] = system: Staphylococcus aureus; experiment: Antibacterial activity against Staphylococcus aureus 1095; format: functional
[2] = system: Enterococcus faecium; experiment: Antibacterial activity against Enterococcus faecium 1022; format: functional
[3] = system: Streptococcus pneumoniae; experiment: Antibacterial activity against Streptococcus pneumoniae 1016; format: functional
[4] = system: Enterococcus faecalis; experiment: Antibacterial activity against Enterococcus faecalis 1085; format: functional
[5] = system: Staphylococcus aureus; experiment: Antibacterial activity against methicillin-resistant Staphylococcus aureus; format: functional
[6] = system: Streptococcus pneumoniae; experiment: Antibacterial activity against Streptococcus pneumoniae infected in po dosed in vivo lung model administered bid for 3 day; format: functional; conditions: 72 h, read-out: PD50
[7] = system: Staphylococcus epidermidis; experiment: Antibacterial activity against methicillin-sensitive Staphylococcus epidermidis; format: functional
[8] = system: Enterococcus faecium; experiment: Antibacterial activity against Enterococcus faecium infected in po dosed in vivo acute model administered bid for 1 day; format: functional; conditions: 24 h, read-out: PD50
[9] = system: Enterococcus faecium; experiment: Antibacterial activity against multidrug-resistant Enterococcus faecium; format: functional
[10] = system: Staphylococcus aureus; experiment: Antibacterial activity against glycopeptide-intermediate Staphylococcus aureus; format: functional
[11] = system: Streptococcus pneumoniae; experiment: Antibacterial activity against penicillin-resistant Streptococcus pneumoniae; format: functional
[12] = system: Enterococcus faecalis; experiment: Antibacterial activity against multidrug-resistant Enterococcus faecalis; format: functional
[13] = system: Staphylococcus aureus; experiment: Antibacterial activity against methicillin-sensitive Staphylococcus aureus; format: functional
[14] = system: Enterococcus faecalis; experiment: Antibacterial activity against Enterococcus faecalis infected in po dosed in vivo acute model administered bid for 1 day; format: functional; conditions: 24 h, read-out: PD50
[15] = system: Streptococcus pyogenes; experiment: Antibacterial activity against Streptococcus pyogenes infected in po dosed in vivo acute model administered bid for 1 day; format: functional; conditions: 24 h, read-out: PD50
[16] = system: Enterococcus faecium; experiment: Antibacterial activity against Enterococcus faecium infected in sc dosed in vivo acute model administered bid for 1 day; format: functional; conditions: 24 h, read-out: PD50
[17] = system: Staphylococcus aureus; experiment: Antibacterial activity against Staphylococcus aureus infected in sc dosed in vivo acute model administered bid for 1 day; format: functional; conditions: 24 h, read-out: PD50
[18] = Clearance in dog; format: ADME, organism-based, Canis lupus familiaris; conditions: in vivo
[19] = Clearance in monkey; format: ADME, organism-based, Macaca mulatta; conditions: rhesus monkey, in vivo
[20] = Half life in dog; format: ADME, organism-based, Canis lupus familiaris; conditions: in vivo
[21] = Volume of distribution at steady state in rat; format: ADME, organism-based; conditions: in vivo, read-out: Vdss
[22] = system: Streptococcus pyogenes; experiment: Antibacterial activity against Streptococcus pyogenes infected in sc dosed in vivo acute model administered bid for 1 day; format: functional; conditions: 24 h, read-out: PD50
[23] = Clearance in rat; format: ADME, organism-based; conditions: in vivo
[24] = Volume of distribution at steady state in mouse; format: ADME, organism-based; conditions: in vivo, read-out: Vdss
[25] = system: Enterococcus faecalis; experiment: Antibacterial activity against Enterococcus faecalis infected in sc dosed in vivo acute model administered bid for 1 day; format: functional; conditions: 24 h, read-out: PD50
[26] = system: Streptococcus pneumoniae; experiment: Antibacterial activity against Streptococcus pneumoniae infected in sc dosed in vivo lung model administered bid for 3 day; format: functional; conditions: 72 h, read-out: PD50
[27] = Volume of distribution at steady state in dog; format: ADME, organism-based, Canis lupus familiaris; conditions: in vivo, read-out: Vdss
[28] = Half life in rat; format: ADME, organism-based; conditions: in vivo
[29] = Clearance in mouse; format: ADME, organism-based; conditions: in vivo
[30] = Oral bioavailability in rat at 10 mg/kg, po and 5 mg/kg, iv; format: ADME, organism-based; conditions: in vivo
[31] = Oral bioavailability in mouse; format: ADME, organism-based; conditions: in vivo
[32] = Half life in monkey; format: ADME, organism-based, Macaca mulatta; conditions: rhesus monkey, in vivo
[33] = Half life in mouse; format: ADME, organism-based; conditions: in vivo
[34] = Volume of distribution at steady state in monkey; format: ADME, organism-based, Macaca mulatta; conditions: rhesus monkey, in vivo; read-out: Vdss

SMILES: CC(=O)NC[C@H]1CN(c2ccc(N3CCOCC3)c(F)c2)C(=O)O1 [LINEZOLID]
MIC90 [5]: 1 µg/mL (≈ 2.96 µM)
ED50 [6]: 10 mg/kg
MIC90 [7]: 1 µg/mL (≈ 2.96 µM)
ED50 [8]: 4 mg/kg
MIC90 [9]: 2 µg/mL (≈ 5.93 µM)
MIC90 [10]: 0.5 µg/mL (≈ 1.48 µM)
MIC90 [11]: 1 µg/mL (≈ 2.96 µM)
MIC90 [12]: 1 µg/mL (≈ 2.96 µM)
MIC90 [13]: 2 µg/mL (≈ 5.93 µM)
ED50 [14]: 3 mg/kg
ED50 [15]: 3 mg/kg

SMILES: C/C(=C\c1cc(F)c(OCCCF)cc1F)C(=O)N[C@@H]1[C@H](O)[C@@H](O)[C@H]2OCO[C@H]2[C@@H]1O
MIC [1]: 1.56 µg/mL (≈ 3.49 µM)
MIC [2]: 0.78 µg/mL (≈ 1.74 µM)
MIC [3]: 2 µg/mL (≈ 4.47 µM)
MIC [4]: 1.56 µg/mL (≈ 3.49 µM)

SMILES: C/C(=C\c1cc(F)c(OCC(C)F)cc1F)C(=O)N[C@@H]1[C@H](O)[C@@H](O)[C@H]2OCO[C@H]2[C@@H]1O (some centres not stated)
MIC [1]: 6.25 µg/mL (≈ 14 µM)
MIC [2]: 3.13 µg/mL (≈ 7 µM)
MIC [3]: 60.2 µg/mL (≈ 135 µM)
MIC [4]: 60.2 µg/mL (≈ 135 µM)

SMILES: C/C(=C\c1cc(F)c(OCC2CCC2)cc1F)C(=O)N[C@@H]1[C@H](O)[C@@H](O)[C@H]2OCO[C@H]2[C@@H]1O
MIC [1]: 12.5 µg/mL (≈ 27.4 µM)
MIC [2]: 6.2 µg/mL (≈ 13.6 µM)
MIC [3]: 6.2 µg/mL (≈ 13.6 µM)
MIC [4]: 12.5 µg/mL (≈ 27.4 µM)

SMILES: C/C(=C\c1cc(F)c(OCCF)cc1F)C(=O)N[C@@H]1[C@H](O)[C@@H](O)[C@H]2OCO[C@H]2[C@@H]1O
MIC [1]: 50 µg/mL (≈ 115 µM)
MIC [2]: 25 µg/mL (≈ 57.7 µM)
MIC [3]: 6.2 µg/mL (≈ 14.3 µM)
MIC [4]: 25 µg/mL (≈ 57.7 µM)

SMILES: C/C(=C\c1cc(F)c(OC[C@H](F)C2CC2)cc1F)C(=O)N[C@@H]1[C@H](O)[C@@H](O)[C@H]2OCO[C@H]2[C@@H]1O
MIC90 [5]: 0.5 µg/mL (≈ 1.06 µM)
ED50 [16]: 8 mg/kg
ED50 [17]: 4 mg/kg
clearance [18]: 5.4 mL/min/kg
MIC90 [7]: 0.25 µg/mL (≈ 0.528 µM)
clearance [19]: 8.6 mL/min/kg
half-life [20]: 1.9 h
Vd [21]: 0.5 L/kg
ED50 [22]: 3 mg/kg
clearance [23]: 10.5 mL/min/kg
MIC90 [9]: 1 µg/mL (≈ 2.11 µM)
Vd [24]: 0.52 L/kg
MIC90 [10]: 0.125 µg/mL (≈ 0.264 µM)
ED50 [25]: 10 mg/kg
ED50 [26]: 23 mg/kg
MIC90 [11]: 0.5 µg/mL (≈ 1.06 µM)
Vd [27]: 0.71 L/kg
half-life [28]: 1.3 h
clearance [29]: 12.1 mL/min/kg
bioavailability [30]: 56%
bioavailability [31]: 55%
half-life [32]: 1 h
MIC90 [12]: 0.5 µg/mL (≈ 1.06 µM)
half-life [33]: 1.4 h
MIC90 [13]: 1 µg/mL (≈ 2.11 µM)
Vd [34]: 0.59 L/kg

More lines, now with the values ahead:

MIC [1]: 6.2 µg/mL (≈ 13.1 µM)
MIC [2]: 6.2 µg/mL (≈ 13.1 µM)
MIC [3]: 3.1 µg/mL (≈ 6.55 µM)
MIC [4]: 6.2 µg/mL (≈ 13.1 µM)
SMILES: C/C(=C\c1cc(F)c(OCC2(F)CCC2)cc1F)C(=O)N[C@@H]1[C@H](O)[C@@H](O)[C@H]2OCO[C@H]2[C@@H]1O

MIC [1]: 100 µg/mL (≈ 210 µM)
MIC [2]: 50 µg/mL (≈ 105 µM)
MIC [3]: 25 µg/mL (≈ 52.6 µM)
MIC [4]: 100 µg/mL (≈ 210 µM)
SMILES: C/C(=C\c1cc(F)c(OCCC(C)(C)F)cc1F)C(=O)N[C@@H]1[C@H](O)[C@@H](O)[C@H]2OCO[C@H]2[C@@H]1O

MIC [1]: 12.5 µg/mL (≈ 26.9 µM)
MIC [2]: 3.13 µg/mL (≈ 6.73 µM)
MIC [3]: 1.56 µg/mL (≈ 3.35 µM)
MIC [4]: 12.5 µg/mL (≈ 26.9 µM)
SMILES: C/C(=C\c1cc(F)c(OCCC(F)F)cc1F)C(=O)N[C@@H]1[C@H](O)[C@@H](O)[C@H]2OCO[C@H]2[C@@H]1O

MIC [1]: 100 µg/mL (≈ 232 µM)
MIC [2]: > 100 µg/mL
MIC [3]: inactive
MIC [4]: > 100 µg/mL
SMILES: C/C(=C\c1cc(F)c(OCCO)cc1F)C(=O)N[C@@H]1[C@H](O)[C@@H](O)[C@H]2OCO[C@H]2[C@@H]1O

MIC [1]: 100 µg/mL (≈ 241 µM)
MIC [2]: 12.5 µg/mL (≈ 30.1 µM)
MIC [3]: inactive
MIC [4]: 25 µg/mL (≈ 60.2 µM)
SMILES: CCOc1cc(F)c(/C=C(\C)C(=O)N[C@@H]2[C@H](O)[C@@H](O)[C@H]3OCO[C@H]3[C@@H]2O)cc1F

MIC [1]: 1.56 µg/mL (≈ 3.3 µM)
MIC [2]: 1.6 µg/mL (≈ 3.38 µM)
MIC [3]: 0.4 µg/mL (≈ 0.845 µM)
MIC [4]: 1.6 µg/mL (≈ 3.38 µM)
SMILES: C/C(=C\c1cc(F)c(OCC(F)C2CC2)cc1F)C(=O)N[C@@H]1[C@H](O)[C@@H](O)[C@H]2OCO[C@H]2[C@@H]1O (some centres not stated)
